Measured values published in patent publication US4530903A, “L-2-hydroxy-4-methylpentanoic acid-dehydrogenase, process for obtaining it and its use” (Degussa Aktiengelleschaft, priority 1982, dated 1985).

T1: L-2-hydroxy-4-methylpentanoic acid-dehydrogenase (Weissella confusa, UniProt P14295)
T1 construct: the cells harvesting by centrifugation, solubilizing the product in a suspension buffered to pH 7 and obtaining the enzyme from the extract; made in house; host or cells: Lactobacillus confusus DSM 20196 (natural producer, not recombinant)
T1 sequence (P14295 1-310): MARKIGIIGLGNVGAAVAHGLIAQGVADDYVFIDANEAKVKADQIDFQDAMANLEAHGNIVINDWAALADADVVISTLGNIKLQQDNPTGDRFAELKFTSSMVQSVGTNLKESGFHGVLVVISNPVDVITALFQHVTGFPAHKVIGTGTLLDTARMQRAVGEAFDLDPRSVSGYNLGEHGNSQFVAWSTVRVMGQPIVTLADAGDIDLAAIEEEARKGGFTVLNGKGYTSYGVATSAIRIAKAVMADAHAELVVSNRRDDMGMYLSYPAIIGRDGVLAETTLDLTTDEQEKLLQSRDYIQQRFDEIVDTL

B1: L-2-hydroxy-4-methylpentanoic acid-dehydrogenase (Weissella confusa) (protein)
chain: MARKIGIIGLGNVGAAVAHGLIAQGVADDYVFIDANEAKVKADQIDFQDAMANLEAHGNIVINDWAALADADVVISTLGNIKLQQDNPTGDRFAELKFTSSMVQSVGTNLKESGFHGVLVVISNPVDVITALFQHVTGFPAHKVIGTGTLLDTARMQRAVGEAFDLDPRSVSGYNLGEHGNSQFVAWSTVRVMGQPIVTLADAGDIDLAAIEEEARKGGFTVLNGKGYTSYGVATSAIRIAKAVMADAHAELVVSNRRDDMGMYLSYPAIIGRDGVLAETTLDLTTDEQEKLLQSRDYIQQRFDEIVDTL
notes: the cells harvesting by centrifugation, solubilizing the product in a suspension buffered to pH 7 and obtaining the enzyme from the extract; made in house; host or cells: Lactobacillus confusus DSM 20196 (natural producer, not recombinant)

Tests used:
[1] = target: T1, L-2-hydroxy-4-methylpentanoic acid-dehydrogenase; experiment: Dehydrogenation of 2-hydroxycarboxylic acids to 2-ketocarboxylic acids (Example 1), NADH formation at 340 nm; format: biochemical, Lactobacillus confusus; conditions: same enzyme solution
Procedure: (§1) In each case, there was measured the maximal initial reaction velocity Vmax and the KM value. […] In a corresponding manner, the enzymatic activity against other 2-hydroxycarboxylic acids was determined. The concentration of the corresponding 2-hydroxycarboxylic acids in the test was varied between 0.2 and a maximum of 100 millimoles. By increasing the substrate concentration, the maximum beginning reaction velocity Vmax was ascertained. The Michaelis constant (KM value) corresponds to the substrate concentration in moles/liter, at which the reaction velocity V amounts to half the maximum initial reaction velocity. The kinetic constants Vmax and KM were ascertained through non-linear regression of the Michaelis-[…] and are collected in Table 2. […] The relative activities (U/ml) set forth in Table 3 were measured at substrate-final concentrations of 1 millimole, 10 millimoles, and 100 millimoles. In all cases, there was employed the same enzyme solution.

[2] = target: T1, L-2-hydroxy-4-methylpentanoic acid-dehydrogenase; experiment: Reduction of 2-ketocarboxylic acids to L-2-hydroxycarboxylic acids (Example 2), NADH decrease at 340 nm; format: biochemical, Lactobacillus confusus; conditions: same enzyme solution
Procedure: (§2) In each case, there was again measured the maximal beginning reaction velocity Vmax and the KM value. […] In a corresponding manner there was determined the enzyme activity against other 2-ketocarboxylic acids. The keto acid concentration in each case was varied in the range of 0.01 to a maximum of 10 millimoles. The maximal initial reaction velocity was ascertained through the increase of the substrate concentration. The Michaelis constant (KM value) corresponds to the substrate concentration in moles/liter at which the reaction velocity V is half the maximum initial reaction velocity. The kinetic constants Vmax and KM were ascertained through nonlinear regression of the Michaelis-[…] equation and are summarized in following Table 4. The relative activities (U/ml) stated in Table 5 were measured at substrate final concentrations of 0.1 millimoles, 1 millimole, and 10 millimoles. In all cases, there was employed the same enzyme solution. At 10 millimoles in all substrates there was already noticeable a substrate excess inhibition.

[3] = substrate: NC(=O)C1=CN([C@@H]2O[C@H](COP(=O)(O)OP(=O)(O)OC[C@H]3O[C@@H](n4cnc5c(N)ncnc54)[C@H](O)[C@@H]3O)[C@@H](O)[C@H]2O)C=CC1; experiment: purified protein, by the assay type; conditions: other: pH 7.0, 0.79 millimole 2-keto-4-methylpentanoic acid, NADH 0.01 to 0.33 millimoles
[4] = substrate: CC(C)CC(O)C(=O)O; experiment: purified protein, by the assay type; format: biochemical, Lactobacillus confusus; conditions: other: dehydrogenation, pH 8.0, 3 mmoles NAD+, with the enantiomer mixture based on the total concentration
Procedure: as §1

[5] = substrate: CC(C)C[C@H](O)C(=O)O; experiment: purified protein, by the assay type; format: biochemical, Lactobacillus confusus; conditions: other: dehydrogenation, pH 8.0, 3 mmoles NAD+, with the enantiomer mixture based on the total concentration
Procedure: as §1

[6] = substrate: CCCC(O)C(=O)O; experiment: purified protein, by the assay type; format: biochemical, Lactobacillus confusus; conditions: other: dehydrogenation, pH 8.0, 3 mmoles NAD+, with the enantiomer mixture based on the total concentration
Procedure: as §1

[7] = substrate: CCCCC(O)C(=O)O; experiment: purified protein, by the assay type; format: biochemical, Lactobacillus confusus; conditions: other: dehydrogenation, pH 8.0, 3 mmoles NAD+, with the enantiomer mixture based on the total concentration
Procedure: as §1

[8] = substrate: CSCCC(O)C(=O)O; experiment: purified protein, by the assay type; format: biochemical, Lactobacillus confusus; conditions: other: dehydrogenation, pH 8.0, 3 mmoles NAD+, with the enantiomer mixture based on the total concentration
Procedure: as §1

[9] = substrate: NC(=O)c1ccc[n+]([C@@H]2O[C@H](COP(=O)([O-])OP(=O)(O)OC[C@H]3O[C@@H](n4cnc5c(N)ncnc54)[C@H](O)[C@@H]3O)[C@@H](O)[C@H]2O)c1; experiment: Dependency of the dehydrogenation reaction velocity on the NAD+ concentration; format: biochemical, Lactobacillus confusus; conditions: other: pH 8.0, 6.3 millimoles L-2-hydroxy-4-methylpentanoic acid, NAD+ 0.05 to 7.0 millimoles
Text: The dependency of the reaction velocity on the NAD^+ concentration was ascertained in a test mixture which contained 0.1 molar phosphate buffer for pH 8.0, 6.3 millimoles of L-2-hydroxy-4-methylpentanoic acid and limiting amounts of enzyme. The NAD^+ concentration was varied in the range of 0.05 to 7.0 millimoles.
The KM value for NAD^+ was ascertained by non-linear regression of the Michaelis-Menten equation and was 3.3×10^-4 moles.

[10] = substrate: CC(C)CC(=O)C(=O)O; experiment: purified protein, by the assay type; format: biochemical, Lactobacillus confusus; conditions: other: reduction, pH 7.0, 0.235 millimoles NADH
Procedure: as §2

[11] = substrate: CCCC(=O)C(=O)O; experiment: purified protein, by the assay type; format: biochemical, Lactobacillus confusus; conditions: other: reduction, pH 7.0, 0.235 millimoles NADH
Procedure: as §2

[12] = substrate: CCCCC(=O)C(=O)O; experiment: purified protein, by the assay type; format: biochemical, Lactobacillus confusus; conditions: other: reduction, pH 7.0, 0.235 millimoles NADH
Procedure: as §2

[13] = substrate: CSCCC(=O)C(=O)O; experiment: purified protein, by the assay type; format: biochemical, Lactobacillus confusus; conditions: other: reduction, pH 7.0, 0.235 millimoles NADH
Procedure: as §2

[14] = test concentration 1 mM substrate
[15] = test concentration 10 mM substrate
[16] = test concentration 100 mM substrate
[17] = test concentration 0.1 mM substrate

Molecule | relative activity [1, 14] [U/ml] | relative activity [1, 15] [U/ml] | relative activity [1, 16] [U/ml] | relative activity [2, 17] [U/ml] | relative activity [2, 14] [U/ml] | relative activity [2, 15] [U/ml] | also measured
CSCCC(O)C(=O)O (racemic) [DL-2-Hydroxy-4-(methylmercapto)-butyric acid] | 0.46 | 2.7 | 5.1 |  |  |  | 
CC(C)CC(O)C(=O)O (racemic) [DL-2-Hydroxy-4-methylpentanoic acid] | 16.6 | 39.8 | 2.9 |  |  |  | 
CCCCC(O)C(=O)O (racemic) [DL-2-Hydroxyhexanoic acid] | 8.4 | 39.5 | 3.9 |  |  |  | 
CCCC(O)C(=O)O (racemic) [DL-2-Hydroxypentanoic acid] | 6.2 | 31.2 | 5.3 |  |  |  | 
CSCCC(=O)C(=O)O [2-Keto-4-(methylmercapto)-butyric acid] |  |  |  | 33 | 93 | 53 | 
CC(C)CC(=O)C(=O)O [2-Keto-4-methylpentanoic acid] |  |  |  | 133 | 259 | 144 | 
CCCCC(=O)C(=O)O [2-Ketohexanoic acid] |  |  |  | 123 | 301 | 103 | 
CCCC(=O)C(=O)O [2-Ketopentanoic acid] |  |  |  | 149 | 344 | 161 | 
CC(C)C[C@H](O)C(=O)O [L-2-Hydroxy-4-methylpentanoic acid] | 28.4 | 49.7 | 5.0 |  |  |  | 
B1 |  |  |  |  |  |  | Km [3]: 3.3e-05 mol; Km [4]: 1400 µM; Vmax [4]: 9.6 µmol/min/mg; Km [5]: 620 µM; Vmax [5]: 9.8 µmol/min/mg; Km [6]: 3550 µM; Km [7]: 4500 µM; Km [8]: 11000 µM; Vmax [8]: 1.2 µmol/min/mg; Km [9]: 330 µM; Km [10]: 70 µM; Vmax [10]: 64 µmol/min/mg; Km [11]: 250 µM; Km [12]: 120 µM; Km [13]: 210 µM; Vmax [13]: 28 µmol/min/mg
